Here are results for 79 compounds from the METLIN SMRT retention time set (Domingo-Almenara et al. 2019).

The nature of the data set: gradient 5% acetonitrile 3 min, to 50% in 2 min, to 85% in 15 min, held 3 min, 100 µL/min. Particulars: column: Zorbax Extend-C18 2.1 x 50 mm; eluents: water / acetonitrile, 0.1% formic acid. The method in brief:
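Values are retention times taken from adduct peaks that software picked and an analyst inspected. The pure standards were run as mixtures of ~100 molecules on HPLC linked to a quadrupole time-of-flight mass spectrometer, in positive and negative ionization mode. A Zorbax Extend-C18 column (2.1 × 50 mm, 1.8 μm) was used at 100 μL/min with water and acetonitrile, each including 0.1% formic acid.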
Turning to `CCc1ccc(CNC(=O)C2CCN(c3cc(Oc4ccc(CC)cc4)ncn3)CC2)cc1`, the RP-LC retention time is 1120 s. Then `CC(=O)Oc1ccc(Nc2cc(C)nc3nc(-c4cccnc4)nn23)cc1`, with 688 s; and `O=C(Cn1c(=O)c(S(=O)(=O)c2ccccc2)cc2ccccc21)NCc1ccco1`, with 810 s. The result for `COc1ccc(Cl)cc1NC(=O)NCC(c1cccnc1)c1c[nH]c2ccccc12` (centres undefined) reads 728 s. The result for `COc1ccc(NC(=O)Cn2cccc(-c3nc(-c4ccc(Br)cc4)no3)c2=O)cc1` reads 925 s. `COc1ccc(NC(=O)CN2CCc3c(c(=O)c4cc(C)ccc4n3C)C2)cc1Cl` came in with an RP-LC retention time of 638 s. The result for `CCCS(=O)(=O)N1CCCN(C2=NS(=O)(=O)C(c3ccc(C)cc3)=C2C)CC1` reads 874 s; that for `CN(C)C(=O)C1CN(C(=O)c2cccc(Br)c2)CC12CCOCC2` (centres undefined), 619 s. Then `Cc1ccc(CNC(=O)C2(C)CCCN(C(=O)Nc3ccccc3Cl)C2)cc1` (centres undefined), with 995 s; and `COC1CCC12CCN(C(=O)CNC(C)=O)CC2` (centres undefined), with 607 s. `Cc1ccc(-c2nnc(-c3ccc(Cl)c(S(=O)(=O)N4CCCCC4)c3)o2)cc1` registered an RP-LC retention time of 1250 s. For `CN(CCc1noc(COc2ccc(F)cc2)n1)C(=O)Nc1ccccc1Cl`, the RP-LC retention time turned out to be 962 s. The result for `O=C(NC1CCN(c2cc(-c3ccc(Cl)cc3)[nH]n2)C1)c1ccc2cc[nH]c2c1` (centres undefined) reads 762 s. The result for `CCc1ccc(CNC(=O)C2CCCN(c3ccc(=O)n(-c4ccc(F)cc4)n3)C2)cc1` (centres undefined) reads 910 s; that for `CCC1Oc2ccc(S(=O)(=O)N3CCC(C(=O)NC4CCCCC4)CC3)cc2NC1=O` (centres undefined), 838 s. The result for `COc1ccc(-c2nc(C)c3c(n2)N(Cc2ccco2)C(=O)CC3)cc1` reads 975 s.

Compound `CCOC(=O)C1CCN(C(=O)C2CCN(c3nnc(-c4ccccc4)o3)CC2)CC1` yielded an RP-LC retention time of 801 s. Take `COc1ccc2c(c1)c(CN1CCC(C(=O)NCCN(C)Cc3ccccc3)CC1)cn2C`: the RP-LC retention time worked out at 590 s.

Regarding `COc1ccc(Cl)cc1NC(=O)N1CCN(CCn2c(C(F)(F)F)nc3cccnc32)CC1`, the RP-LC retention time is 696 s. In the case of `CCc1ccccc1S(=O)(=O)Cc1ccc(C(=O)N2CCN(c3ccccn3)CC2)o1`, the RP-LC retention time was 637 s. For `CC(NC(=O)c1ccco1)C(=O)NCc1nn(C(C)C)c2ccccc12` (centres undefined), the RP-LC retention time was 712 s. The result for `CCc1nc(-c2csc(S(=O)(=O)N3CCCC(C(=O)Nc4cccc(C#N)c4)C3)c2)no1` (centres undefined) reads 1010 s; that for `COc1ccc(Cn2c(=O)c3sccc3n(Cc3nc(-c4cccc(OC)c4)no3)c2=O)cc1`, 962 s. Then `O=C(Nc1cnc(-c2ccccc2)nc1)c1cccc(F)c1`, with 970 s; and `Cc1cccc(N2CCN(S(=O)(=O)c3cc(-c4nnc(C5CC5)o4)co3)CC2)c1C`, with 1130 s; and `CCOc1ccccc1NC(=O)NC1CCN(c2cc(N3CCCC3)cnn2)C1` (centres undefined), with 594 s.

`CNC(=O)C1=CCN(C(=O)c2cc(C)cc(C)c2)CC1`: the RP-LC retention time amounted to 705 s. As for `O=S(=O)(NCC1CCN(Cc2ccco2)CC1)c1ccc2c(c1)CCCC2`, the RP-LC retention time is 603 s.

`CCCNC(=O)Cn1cc(C(=O)Nc2cc(C)cc(C)c2)c(=O)c2ccc(C)nc21` registered an RP-LC retention time of 982 s. The result for `Cc1sc(-c2cc(C(F)(F)F)on2)cc1S(=O)(=O)NC1CC1` reads 1040 s.

With `Cc1ccc(NC(=O)Cn2c(N)nc(C)cc2=O)c(C)c1`, the RP-LC retention time is 617 s. `Cc1ccc(NC(=O)N2CCC(n3cnc4ccc(C)cc4c3=O)CC2)c(C)c1` had an RP-LC retention time of 795 s. The result for `CC(C)(C)NC(=O)N1CCC(N2CC3(CCCCC3)C2c2ccncc2)CC1` (centres undefined) reads 611 s; that for `O=C(CCSc1ccccc1)Nc1ccc2c(c1)CN(C(=O)C1CC1)CC2`, 816 s; that for `Cn1c(C2CCN(C(=O)Nc3ccc(F)cc3F)CC2)cc(=O)n2nccc12`, 647 s. The result for `c1ccc2c(N3CCCCCC3)nnc(-c3nc(C4CC4)no3)c2c1` reads 895 s. Then `O=C(Nc1ccc2c(c1)N(S(=O)(=O)c1ccccc1)CCC2)c1ccccc1[N+](=O)[O-]`, with 926 s. In the case of `CCOC(=O)Cn1c(=O)c2cnc(-c3ccc(Cl)cc3)nc2n(C)c1=O`, the RP-LC retention time came out at 1130 s. On to `Cc1ccc(NC(=O)C2CCCN2S(=O)(=O)c2cc3c(cc2C)NC(=O)C(C)O3)cc1` (centres undefined), for which the RP-LC retention time came to 794 s. The result for `COc1cccc(Cn2c(=O)c3sccc3n(Cc3nc(-c4ccc(F)cc4)no3)c2=O)c1` reads 1070 s; that for `Cc1oc(C2CCN(C(=O)Cc3c(F)cccc3Cl)CC2)nc1C(=O)N1CCCCC1`, 886 s; that for `COc1ccc(-n2ccc(=O)c(-c3nc(-c4ccc(OC)c(OC)c4)no3)n2)cc1`, 788 s.

In turn, `Cc1cccc(NS(=O)(=O)c2cc3n(c2)CCCN(C)C3=O)c1C` showed an RP-LC retention time of 711 s.

`CCCN1CCN(S(=O)(=O)c2cc(-c3[nH]ncc3C(=O)N(C)C)oc2C)CC1` gave an RP-LC retention time of 566 s. The result for `Cc1nc(-c2ccncc2)nc2c1CCC(=O)N2Cc1ccncc1` reads 540 s. The result for `CN(C)c1ccc(-c2nc3cnccn3c2Nc2cccc(C(=O)O)c2)cc1` reads 655 s; that for `Cc1cnc(CC2CCN(S(=O)(=O)Cc3ccccc3)C2)n1C(C)C` (centres undefined), 663 s; that for `O=C(CSc1nnc(NC(=O)C2(c3cccs3)CCCC2)s1)c1ccccc1`, 1050 s. The result for `COC(=O)c1ccccc1NC(=O)N1CCN(c2nc3ccccc3n2C)CC1` reads 680 s; that for `O=C(c1cccs1)N1CC(C(=O)N2CCC(O)CC2)C1`, 566 s. As for `CC(=O)N1CCN(c2nc3c(s2)CC(C(=O)NCc2cc(F)cc(F)c2)CC3)CC1` (centres undefined), the RP-LC retention time was 597 s. The compound `CCCNC(=O)C1CCN(c2ccc(SCC(=O)NCc3cccc(C(F)(F)F)c3)nn2)CC1` came in with an RP-LC retention time of 672 s. Then `COc1ccc2c(c1)c(CN1CCC(N3C[C@H](OC)[C@@H]3c3cccnc3)CC1)cn2C`, with 579 s. `CCOC(=O)C1CCN(c2nc(=O)n(CC(=O)Nc3ccc(C)cc3)c3ccccc23)CC1` had an RP-LC retention time of 843 s. Then `COc1cc(CN(CC2CCCO2)C(=O)c2ccc(F)cc2)cc(OC)c1OC` (centres undefined), with 834 s; and `O=C(C1CC1)N1CCc2sc(S(=O)(=O)N3CCN(c4ccccc4)CC3)cc2C1`, with 987 s; and `CCOC(=O)c1c(C)c(C(=O)C(C)N(Cc2ccc(F)cc2)C(=O)CC)c(C)n1CC` (centres undefined), with 1080 s.

For the compound `CN1CCN(C(=O)C2CCN(c3nc4ccc(-c5ccsc5)nc4s3)CC2)CC1`, the RP-LC retention time is 651 s. The result for `NC(=O)C1CCN(Cc2nc(-c3ccc(N4CCSCC4)nc3)no2)CC1` reads 597 s; that for `CC(C)(C)c1cc(C(=O)Nc2ccccc2F)nc2ccnn12`, 1380 s.

`COc1ccc2c(c1)C1(CCN(C(=O)Nc3cccc(F)c3)C1)C(=O)N2C` (centres undefined): the RP-LC retention time was determined as 811 s.

For `CCN1CCN(CC(=O)Nc2ccc(C(C)=O)cc2)C(=O)C1=O`, the RP-LC retention time was found to be 580 s. The result for `O=C(Nc1ccccc1)N1CCC(N2C[C@H]3C[C@H](C2)[C@H]2CCCC(=O)N2C3)CC1` reads 590 s; that for `COc1ccc(NC(=O)Nc2cccc(-c3cn4cccnc4n3)c2)cc1`, 687 s. In the case of `CN(CC1(C)CCOCC1)C(=O)c1ccccc1Br`, the RP-LC retention time worked out at 806 s. The result for `O=C(CSc1ncccc1C(=O)O)Nc1nc(-c2ccccc2)cs1` reads 822 s. The result for `CCc1nn2c(CNC(=O)c3cc(Cl)ccc3OC)c(C)nc2s1` reads 659 s. `COc1ccc(NC(=O)C(C)C2CCN(C(=O)Nc3ccc(F)cc3)CC2)c(OC)c1` (centres undefined) gave an RP-LC retention time of 871 s.

Compound `CN(C)C(=O)Cn1c(C(F)(F)F)nc2cc3c(cc21)OCCO3` gave an RP-LC retention time of 694 s. The result for `COc1ccc(-c2ccnn2-c2ccc(SCC(N)=O)nn2)cc1` reads 777 s; that for `CCN(CC)CCCNC(=O)Cn1c(=O)c2cccn2c2ccccc21`, 602 s; that for `Nc1nc(Cl)nc2c1ncn2[C@@H]1O[C@H](CO)[C@H](O)C1O` (some centres undefined), 611 s. Then `O=C(CC1CCN(C(=O)c2cc3cc(Cl)ccc3[nH]2)CC1)N1CCN(c2ccccn2)CC1`, with 669 s. Compound `CCn1ncc2ccc(C(N)=O)cc21` registered an RP-LC retention time of 599 s. The result for `Cc1cc(C)c(-c2noc(C)n2)c(NC(=O)c2ccccc2Br)n1` reads 762 s; that for `CC(NC(=O)c1c(O)c2cccnc2n(-c2ccccc2)c1=O)c1ccccc1` (centres undefined), 1190 s; that for `Cc1cc(C)cc(N2CCC(NC(=O)c3ccc(C)s3)C2=O)c1` (centres undefined), 904 s.

`COc1ccc(-c2noc(-c3ccc(N4CCN(c5ccccn5)CC4)nc3)n2)cc1` gave an RP-LC retention time of 764 s. The result for `CCCN(CC1CCOC1)C(=O)c1ccc(F)c(F)c1` (centres undefined) reads 787 s.
